Ends that are not written are not given here.
Key:
db/db mice = db/db mice model of type 2 diabetes, chronic treatment; format: in vivo, mouse
Description: The aim was to determine the activity of IB(s) peptides and all-D retro-inverso IB(s) peptides and variants thereof in the treatment of Diabetes Type 2, particularly to determine the effect of chronic treatment with XG-102 (SEQ ID NO: 233) in the db/db mice model of type 2 diabetes by evaluating fasting blood glucose levels every third day (28 days)
a) Materials and Methods • i) Animals • A total of twenty (20) male db/db mice (8 weeks old) were obtained from Charles River (Germany). Upon arrival, animals were group housed (n=6-7/group) and offered regular rodent chow (Altromin standard #1324 chow; C. Petersen, Ringsted, Denmark) and water ad libitum unless otherwise stated. • The mice were housed under a 12:12 L/D cycle (lights on at 4:00 and lights off at 16:00) and in temperature and humidity controlled rooms. • ii) Groups and Randomization • On day −4, mice were randomized according to blood glucose level (fasted; blood glucose measured on Biosen S line analyzer (EKF diagnostic, Germany) to participate in one of the following drug treatment groups (n=6): • 1) Vehicle control, S.C. (physiological saline) • 2) XG-102 (SEQ ID NO: 233); 1 mg/kg; s.c. • 3) XG-102 (SEQ ID NO: 233); 10 mg/kg; s.c • All doses listed were calculated for the free-base. Drug purity: 95.28%, peptide content: 78.0%. All compounds were administered sub-cutaneously (s.c.) in a volume of 3 ml/kg. The formulation instructions for vehicle control and XG-102 (SEQ ID NO: 233) were as follows: • First, XG-102 (SEQ ID NO: 233) was dissolved in the vehicle. The formulations (concentrations of 0.33 and 3.3 mg/ml, corresponding to the doses of 1 and 10 mg/kg, respectively) were prepared according to the procedure detailed below. Concentrations were calculated and expressed taking into account test items purity and peptide content (multiplier coefficient was 1.346). • Preparation of a stock solution: the freeze-dried test compound XG-102 (SEQ ID NO: 233) is thawed for one hour minimum and prepared as a stock solution in the vehicle at 1 mM (corresponding to 3.823 mg/mL). Aliquots are prepared for each treatment day and stored at approximately −80° C. Dilutions of this stock solution to the required concentrations are performed on each treatment day; • Storage of the stock solution: at approximately −80° C.; • Storage of the diluted preparations: at room temperature for 24 hours maximum. • Prior to solubilisation, the powder was stored at −20° C. The stability of the stock solution is 3 months at approximately −80° C.; the stability of the diluted formulations for animal dosing is 24 hours at room temperature. Unused diluted material could be stored for up to 7 days if kept at 4-8° C.
c) Experimental Procedure • Following 8 days of acclimatization the mice were treated daily at 08.00 AM for 21 days by SC dosing 8 hours prior to lights out at 04.00 PM according to the outline groups. […] Mice were stratified into two sub-teams of n=6-7 and subsequently the metabolic characterisation were performed on study days 71-72. • iii) Adipokine Panel • Groups 1+3: On three occasions (study days 57, 66 and 108) blood was collected from the tail vein using EDTA coated hematocrite tubes (100 μl). Following centrifugation of blood the plasma was collected and stored at −20° C. until measurement. Then, the following panel of adipokines/cytokines was determined using Luminex based 7-plex: leptin, resistin, MCP-1, PAI-1, TNF, insulin and interleukin-6 (IL-6). • iv) Termination • Groups 1+3 (day 111): The following organs were excised and weighed:
inguinal subcutaneous fat, epididymal fat, retroperitoneal fat, brain, liver, kidney, spleen and heart. All organs described above were samples in 4% PFA for possible future histo-pathological examination. Also, pancreas (en bloc) was sampled for possible stereological and imunohistochemical analysis, and eyes were sampled for possible later analysis of retinopathy. Group 2 (day 28): No tissues or plasma were collected.

TNBS induced colitis = TNBS induced colitis (IBD study); format: in vivo
Method: b) Constitution of Test Groups and Dose Levels • The table below lists the experimental groups comprising the study.
c) Test Procedures • Colitis was induced by administration of TNBS dissolved in 50% Ethanol • All animals were then treated with doses of XG-102 in the range of 0.1 to 1000 μg/kg, […], as a single or repeated daily doses (see above).
d) Observations and Examinations • i) Clinical Signs • Throughout the duration of the above experiment, careful clinical examinations were carried out and recorded. Observations included changes external appearance, e.g. of the skin, fur, eyes, mucous membranes, occurrence of secretions and excretions (e.g. diarrhea), and autonomic activity. Changes in gait, posture and response to handling, as well as the presence of bizarre behavior, tremors, convulsions, sleep and coma were also noted. • ii) Body Weights • Determination of individual body weight of animals was made on a daily basis. • iii) Clinical Assessment of Colitis • Body weight, stool consistency and bleeding per rectum were all recorded daily and served as the parameters of disease severity score:
• iv) Gross Pathology of the Colon • On the last day of the experiment, animals were euthanized and the colon was removed for gross pathology evaluation according to the following score: […]

[1] = Tissue distribution of C14 radiolabeled D-TAT-tagged peptides; format: in vivo, mouse; settings: 1 mg/kg s.c., i.v., i.p.; 72 hours after injection
Method: Mice were treated via three different routes of administration (s.c., i.v., i.p.) with radiolabeled peptides with C^14 (1 mg/kg). Animals were sacrificed 72 hours after injection and processed for immunoradiography. […] This illustrates that the transporter D-TAT is responsible for the tissue distribution.

Substance: dqsrpvqpflnIttprkprpprrrqrrkkrg (DQSRPVQPFLNLTTPRKPRPPRRRQRRKKRG; not fully specified (some residues); printed as dqsrpvqpflnIttprkprpprrrqrrkkrg) [XG-102]
- body weight vs vehicle (db/db mice; 1 mg/kg, 28 days of dosing): no effect
- fasting blood glucose vs vehicle (db/db mice; 1 mg/kg, 28 days of dosing): no effect
- dosing time until blood glucose effect evident (db/db mice; 10 mg/kg): 14 days
- fasting blood glucose plateau (db/db mice; 10 mg/kg): approximately 5 mmol/L
- fasting blood glucose vs vehicle (db/db mice; 10 mg/kg s.c. daily for 21 days, wash-out to day 111): clear and significant (p<0.001) decrease
- tissue weight of brain, spleen and heart (db/db mice; 10 mg/kg, day 111): no significant effects
- tissue weight of fat pads at termination (db/db mice; 10 mg/kg, day 111): a significant decrease of epididymal (p<0.05) and retroperitoneal (p<0.01) fat mass
- tissue weight of kidney and liver (db/db mice; 10 mg/kg, day 111): a significant decrease of kidney (p<0.05) and liver (p<0.01) mass
- body weight vs vehicle (db/db mice; 10 mg/kg, from day 28 to day 111): clear and significant (p<0.001) prevention of body weight increase
- general observations: sedation (db/db mice; acute dosing period): no signs of sedation
- reaction of subcutaneous tissue at injection site (db/db mice; group B (1 mg/kg s.c. daily)): mild nodular fibrosis was observed
- reaction of subcutaneous tissue at injection site (db/db mice; high dose (10 mg/kg s.c. daily), after approximately two weeks): nodular fibrosis was observed in the subcutaneous tissue
- disease recovery (conclusion) (TNBS induced colitis): active in enhancing diseases recovery
- body weights (TNBS induced colitis; TNBS induced weight loss): either prevented the weight loss or ameliorated the symptoms and supported recovery
- clinical score (TNBS induced colitis; any dose, route or time schedule (single dose or daily dose)): an effect equivalent to or better than the one observed with the commonly used reference drug sulfasalazine
- clinical signs (TNBS induced colitis; mouse, in vivo): No abnormalities were observed
- mortality rate (TNBS induced colitis; mouse, in vivo): No mortality was recorded
- tissue distribution (accumulation) [1]: in the liver, spleen, and bone marrow predominantly

— patent publication US10023615B2, “Efficient transport into white blood cells” (priority 2008, dated 2018)
